Legend:
Nestin+ cells = details: AMD3100 0.15 mg/kg body weight/day by Alzet slow-release pump, tumor-bearing mice
Experimental: 8-week-old C57 BL/6 male mice having no more than […] of weight were taken and divided into control group, cachexia group (LLC), and AMD3100 group (LLC+AMD3100).
Control group: no treatment.
Cachexia group: 4×10^6 LLC was transplanted subcutaneously into the groin of mice. After 7 days, mice were anesthetized with 100 μL of 10% chloral hydrate, and Alzet slow release pumps (model: 1004) were implanted subcutaneously on the back of mice. The normal saline was contained in the pump.
AMDd3100 group: 4×10^6 LLC was transplanted subcutaneously into the groin of mice. After 7 days, mice were anesthetized with 100 μL of 10% chloral hydrate, and an Alzet slow-release pump (model: 1004) was implanted subcutaneously on its back, and AMD3100 was contained in the pump. The use amount of mice AMD3100 was 0.15 mg/kg weight/day. After 14 days of installation of the slow-release pump, the mice were killed, and the muscle and fat tissue sections were taken for immunofluorescence staining, or RNA reverse transcription for fluorescence quantitative PCR was carried out by extracting RNA reverse transcription to detect the expression of Nestin.

[1] = tested on: muscle and fat-derived Nestin+ cells; assay: Transwell migration of mouse Nestin+ cells promoted by Cxcl12; type: cell-based; details: 1 μmol/ml Cxcl12 under the Transwell chamber (8 μm pore), 24 hours, versus control without Cxcl12
Experimental: The Corning Transwell chamber (8 μm pore size) was placed on a 24-well plate, and muscle and fat-derived Nestin+ cells (see example 1) cultured in vitro were inoculated in the Transwell chamber with 2×10^4 cells/well, and cultured in a 5% CO2 and 37° C. incubator. Each well was added with 500 μl of DMEM/low sugar under the Transwell chamber. The experimental group contained 1 μmol/ml Cxcl12 factors, while Cxcl12 factors were not added in control group. After 24 hours, the chamber was taken out, the cells inside the chamber were wiped out with a cotton swab, and the chamber was washed gently and immobilized and rinsed twice with anhydrous alcohol; the chambers in various groups were marked, and erected on the abandoned well plate, and crystal violet dye solution was added into each well for incubate at room temperature for 15 min; excessive staining solution was washed away. The quantity of migrated cells in each group was measured under the inverted microscope. Five fields (400 times) were randomly selected to calculate the quantity of migrated cells in each group under the microscope with 3 repeated wells in each group. The average value of the results was calculated. It can be seen from FIG. 6 that Cxcl 12 can promote the migration of mouse Nestin+ cells.

Compound | migration of Nestin+ cells from muscles and fats toward tumor (Nestin+ cells) | migration of mouse Nestin+ cells (quantity of migrated cells) [1] | migration of mouse Nestin+ cells (quantity of migrated cells) ([1]; listed as Cxcl12)
c1cc(CN2CCCNCCNCCCNCC2)ccc1CN1CCCNCCNCCCNCC1 [AMD3100, 1,1′-[1,4-phenylenebis(methylene)]-di-1,4,8,11-tetraazacyclotetradecane] | successfully inhibit | – | –
Cxcl 12: chemokine Cxcl12 factor added under the Transwell chamber; highly expressed in mouse tumor | – | promote | promoted
